According to patent publication US9321764B2, “Dihydro-pyrrolopyridinone inhibitors” (AbbVie Inc., priority 2013, dated 2016):

Legend:
BRD4 (BDI_K57-E168) = molecular target: T1, BRD4 (BDI_K57-E168) (Homo sapiens, UniProt O60885); test: TR-FRET bromodomain binding assay, first bromodomain of BRD4; settings: His-tagged BD1, 100 nM Alexa647 probe; TR-FRET protocol A-E given per row
T1 construct: BD1: amino acids K57-E168; made in house
Experimental: (§1) A time-resolved fluorescence resonance energy transfer (TR-FRET) assay was used to determine the affinities of compounds of the Examples listed in Table 1 for each bromodomain of BRD4. His-tagged first (BD1: amino acids K57-E168) and second (BD2: amino acids E352-E168) bromodomains of BRD4 were expressed and purified. An Alexa647-labeled BET-inhibitor was used as the fluorescent probe in the assay.
(§2) Compound dilution series were prepared in DMSO via an approximately 3-fold serial dilution from one of the following:
Assay method A: 250 μM-4.2 nM
Assay method B: 0.47 mM to 7.8 nM
Assay method C: 500 μM-8.5 nM
(§3) Assay method D: 2.5 mM-800 nM
Assay method E: 0.047 mM to 0.78 nM or 5-fold serial dilution from Assay method D
For Assay methods A, C, and D: Compounds were then diluted 6:100 in assay buffer (20 mM Sodium Phosphate, pH 6.0, 50 mM NaCl, 1 mM Ethylenediaminetetraacetic acid, 0.01% Triton X-100, 1 mM DL-Dithiothreitol) to yield 3× working solutions. Six microliters (μL) of the working solution was then transferred to white, low-volume assay plates (Costar #3673). A 1.5× assay mixture containing His-tagged bromodomain, Europium-conjugated anti-His antibody (Invitrogen PV5596) and the Alexa-647-conjugated probe molecule was also prepared. Twelve μL of this solution were added to the assay plate to reach a final volume of 18 μL.
For Assay methods B and E: Compound dilutions were added directly into white, low-volume assay plates (Perkin Elmer Proxiplate 384 Plus #6008280) using a Labcyte Echo in conjunction with Labcyte Access and Thermo Multidrop CombinL robotics. Compounds were then suspended in eight microliters (μL) of assay buffer (20 mM Sodium Phosphate, pH 6.0, 50 mM NaCl, 1 mM Ethylenediaminetetraacetic acid disodium salt dihydrate, 0.01% Triton X-100, 1 mM DL-Dithiothreitol) containing His-tagged bromodomain, Europium-conjugated anti-His antibody (Invitrogen PV5596) and Alexa-647-conjugated probe.
The final concentration of 1× assay mixture for assay methods A, B, C, D, and E contains 2% DMSO, 8 nM His-tagged bromodomain, 1 nM Europium-conjugated anti-His-tag antibody and 100 nM or 30 nM probe (for BDI or BDII, respectively) and compound concentration in the range of: 5 μM-85 pM for method A, 9.19 μM 150 pM for method B, 10 μM-169 pM for method C, 50 μM-16 nM for method D, and 0.92 μM-15 pM for method E.
After a one-hour equilibration at room temperature, TR-FRET ratios were determined using an Envision multilabel plate reader (Ex 340, Em 495/520).
TR-FRET data were normalized to the means of 24 no-compound controls (“high”) and 8 controls containing 1 μM un-labeled probe (“low”). Percent inhibition was plotted as a function of compound concentration and the data were fit with the 4 parameter logistic equation to obtain IC50s Inhibition constants (Ki) were calculated from the IC50s, probe Kd and probe concentration. Typical Z′ values were between 0.65 and 0.75. The minimum significant ratio was determined to evaluate assay reproducibility (Eastwood et al., (2006) J Biomol Screen, 11: 253-261). The MSR was determined to be 2.03 for BDI and 1.93 for BDII, and a moving MSR (last six run MSR overtime) for both BDI and BDII was typically <3.

BRD4 (BDII_E352-M457) = molecular target: T2, BRD4 (BDII_E352-M457) (Homo sapiens, UniProt O60885); test: TR-FRET bromodomain binding assay, second bromodomain of BRD4; settings: His-tagged BD2, 30 nM Alexa647 probe; TR-FRET protocol A-E given per row
T2 construct: proliferation; Protocol; made in house
Experimental: as §1, §2, §3
For Assay methods A, C, and D: Compounds were then diluted 6:100 in assay buffer (20 mM Sodium Phosphate, pH 6.0, 50 mM NaCl, 1 mM Ethylenediaminetetraacetic acid, 0.01% Triton X-100, 1 mM DL-Dithiothreitol) to yield 3× working solutions. […] Twelve μL of this solution were added to the assay plate to reach a final volume of 18 μL.
TR-FRET data were normalized to the means of 24 no-compound controls (“high”) and 8 controls containing 1 μM un-labeled probe (“low”). Percent inhibition was plotted as a function of compound concentration and the data were fit with the 4 parameter logistic equation to obtain IC50s Inhibition constants (Ki) were calculated from the IC50s, probe Kd and probe concentration. Typical Z′ values were between 0.65 and 0.75.

Row | Structure (SMILES) | Ki (BRD4 (BDI_K57-E168)) [nM] | Ki (BRD4 (BDII_E352-M457)) [nM]
1 | Cn1cc(-c2cc(S(C)(=O)=O)ccc2NCC2CCCCC2)c2cc[nH]c(=O)c21 [Example 47, 3-{2-[(cyclohexylmethyl)amino]-5-(methylsulfonyl)phenyl}-1-methyl-1,6-dihydro-7H-pyrrolo[2,3-c]pyridin-7-one] | 33 | 124
2 | Cn1cc(-c2cc(F)cnc2Nc2ccc(F)cc2)c2cc[nH]c(=O)c21 [Example 145, 3-{5-fluoro-2-[(4-fluorophenyl)amino]pyridin-3-yl}-1-methyl-1,6-dihydro-7H-pyrrolo[2,3-c]pyridin-7-one] | 174 | 296
3 | Cn1cc(-c2cc(NC(=O)CCCOc3ccccc3)ccc2Oc2ccc(F)cc2F)c2cc[nH]c(=O)c21 [Example 153, N-[4-(2,4-difluorophenoxy)-3-(1-methyl-7-oxo-6,7-dihydro-1H-pyrrolo[2,3-c]pyridin-3-yl)phenyl]-4-phenoxybutanamide] | 321 | 293
4 | CCS(=O)(=O)c1ccc(Oc2cncc(C)n2)c(-c2cn(C)c3c(=O)[nH]ccc23)c1 [Example 86, 3-{5-(ethylsulfonyl)-2-[(6-methylpyrazin-2-yl)oxy]phenyl}-1-methyl-1,6-dihydro-7H-pyrrolo[2,3-c]pyridin-7-one] | 697 | 764
5 | CCS(=O)(=O)Nc1ccc(Oc2ccc(F)cc2F)c(-c2cn(C)c3c(=O)[nH]c(C(=O)N4CCOCC4)cc23)c1 [Example 191, N-{4-(2,4-difluorophenoxy)-3-[1-methyl-5-(morpholin-4-ylcarbonyl)-7-oxo-6,7-dihydro-1H-pyrrolo[2,3-c]pyridin-3-yl]phenyl}ethanesulfonamide] | 7.63 | 54.6
6 | CCS(=O)(=O)c1ccc(Oc2ccncc2)c(-c2cn(C)c3c(=O)[nH]ccc23)c1 [Example 74, 3-[5-(ethylsulfonyl)-2-(pyridin-4-yloxy)phenyl]-1-methyl-1,6-dihydro-7H-pyrrolo[2,3-c]pyridin-7-one] | > 2380 | 388
7 | CCS(=O)(=O)c1ccc(Oc2cccc(Cl)c2Cl)c(-c2cn(C)c3c(=O)[nH]ccc23)c1 [Example 84, 3-[2-(2,3-dichlorophenoxy)-5-(ethylsulfonyl)phenyl]-1-methyl-1,6-dihydro-7H-pyrrolo[2,3-c]pyridin-7-one] | 55 | 25
8 | CCS(=O)(=O)c1ccc(Oc2ccc(Cl)c(Cl)c2)c(-c2cn(C)c3c(=O)[nH]ccc23)c1 [Example 76, 3-[2-(3,4-dichlorophenoxy)-5-(ethylsulfonyl)phenyl]-1-methyl-1,6-dihydro-7H-pyrrolo[2,3-c]pyridin-7-one] | 77 | 64
9 | Cn1cc(-c2cc(S(C)(=O)=O)ccc2OC2Cc3ccccc3C2)c2cc[nH]c(=O)c21 [Example 38, 3-[2-(2,3-dihydro-1H-inden-2-yloxy)-5-(methylsulfonyl)phenyl]-1-methyl-1,6-dihydro-7H-pyrrolo[2,3-c]pyridin-7-one] | 90 | 435
10 | CCS(=O)(=O)c1ccc(Oc2ccc(OC)cc2Cl)c(-c2cn(C)c3c(=O)[nH]ccc23)c1 [Example 85, 3-[2-(2-chloro-4-methoxyphenoxy)-5-(ethylsulfonyl)phenyl]-1-methyl-1,6-dihydro-7H-pyrrolo[2,3-c]pyridin-7-one] | 44 | 17
11 | CCS(=O)(=O)Nc1ccc(Oc2ccc(F)cc2F)c(-c2cn(C)c3c(=O)[nH]c(C(=O)NCc4ccoc4)cc23)c1 [Example 201, 3-{2-(2,4-difluorophenoxy)-5-[(ethylsulfonyl)amino]phenyl}-N-(furan-3-ylmethyl)-1-methyl-7-oxo-6,7-dihydro-1H-pyrrolo[2,3-c]pyridine-5-carboxamide] | 3.47 | 11.4
12 | Cn1cc(-c2cc(S(C)(=O)=O)ccc2Oc2ccccc2)c2cc[nH]c(=O)c21 [Example 18, 1-methyl-3-[5-(methylsulfonyl)-2-phenoxyphenyl]-1,6-dihydro-7H-pyrrolo[2,3-c]pyridin-7-one] | 12 | 21
13 | Cc1cccc(OCC2CC2)c1-c1cn(C)c2c(=O)[nH]ccc12 [Example 50, 3-[2-(cyclopropylmethoxy)-6-methylphenyl]-1-methyl-1,6-dihydro-7H-pyrrolo[2,3-c]pyridin-7-one] | 1710 | > 4440
14 | Cn1cc(-c2cc(S(C)(=O)=O)ccc2OCCc2ccccc2)c2cc[nH]c(=O)c21 [Example 37, 1-methyl-3-[5-(methylsulfonyl)-2-(2-phenylethoxy)phenyl]-1,6-dihydro-7H-pyrrolo[2,3-c]pyridin-7-one] | 52 | 99
15 | CCS(=O)(=O)c1ccc(Oc2cncnc2)c(-c2cn(C)c3c(=O)[nH]ccc23)c1 [Example 88, 3-[5-(ethylsulfonyl)-2-(pyrimidin-5-yloxy)phenyl]-1-methyl-1,6-dihydro-7H-pyrrolo[2,3-c]pyridin-7-one] | 287 | 739

Continued, values first:

Row | Ki (BRD4 (BDI_K57-E168)) [nM] | Ki (BRD4 (BDII_E352-M457)) [nM] | Structure (SMILES)
16 | 71 | 226 | Cn1cc(-c2cc(NCc3cccc(C#N)c3)ccc2Oc2ccc(F)cc2F)c2cc[nH]c(=O)c21 [Example 172, 3-({[4-(2,4-difluorophenoxy)-3-(1-methyl-7-oxo-6,7-dihydro-1H-pyrrolo[2,3-c]pyridin-3-yl)phenyl]amino}methyl)benzonitrile]
17 | > 238 | 79.1 | Cc1ccc(CC(=O)Nc2ccc(Oc3ccc(F)cc3F)c(-c3cn(C)c4c(=O)[nH]ccc34)c2)cn1 [Example 161, N-[4-(2,4-difluorophenoxy)-3-(1-methyl-7-oxo-6,7-dihydro-1H-pyrrolo[2,3-c]pyridin-3-yl)phenyl]-2-(6-methylpyridin-3-yl)acetamide]
18 | 25.3 | 90.1 | Cn1cc(-c2cc(N)ccc2Oc2ccc(F)cc2F)c2cc[nH]c(=O)c21 [Example 146, 3-[5-amino-2-(2,4-difluorophenoxy)phenyl]-1-methyl-1,6-dihydro-7H-pyrrolo[2,3-c]pyridin-7-one]
19 | 76.4 | 153 | Cn1cc(-c2cc(NC(=O)Cc3noc4ccccc34)ccc2Oc2ccc(F)cc2F)c2cc[nH]c(=O)c21 [Example 158, 2-(1,2-benzoxazol-3-yl)-N-[4-(2,4-difluorophenoxy)-3-(1-methyl-7-oxo-6,7-dihydro-1H-pyrrolo[2,3-c]pyridin-3-yl)phenyl]acetamide]
20 | 22 | 145 | Cn1cc(-c2cc(NC(=O)c3ccccn3)ccc2Oc2ccc(F)cc2F)c2cc[nH]c(=O)c21 [Example 150, N-[4-(2,4-difluorophenoxy)-3-(1-methyl-7-oxo-6,7-dihydro-1H-pyrrolo[2,3-c]pyridin-3-yl)phenyl]pyridine-2-carboxamide]
21 | 5.9 | 7.2 | CCS(=O)(=O)Nc1ccc(Oc2ccc(F)cc2F)c(-c2cn(C)c3c(=O)[nH]ccc23)c1 [Example 4, N-[4-(2,4-difluorophenoxy)-3-(1-methyl-7-oxo-6,7-dihydro-1H-pyrrolo[2,3-c]pyridin-3-yl)phenyl]ethanesulfonamide]
22 | 69.9 | 231 | Cn1cc(-c2cc(NCc3ccnc4ccccc34)ccc2Oc2ccc(F)cc2F)c2cc[nH]c(=O)c21 [Example 179, 3-{2-(2,4-difluorophenoxy)-5-[(quinolin-4-ylmethyl)amino]phenyl}-1-methyl-1,6-dihydro-7H-pyrrolo[2,3-c]pyridin-7-one]
